The values below are quoted from earlier work in US20250074936A1, “A PROCESS FOR ISOLATION OF SAPONINS UTTROSIDE B AND UTTROSIDE A FROM SOLANUM NIGRUM LINN” (COUNCIL OF SCIENTIFIC AND INDUSTRIAL RESEARCH AN INDIAN …, priority 2022, published 2025).

Structures are written as SMILES.

One data set concerns HeLa cells. To be noted: read-out: moderate cytotoxicity against HeLa cells, IC50.
The test system of the next data set is PC-12. To be noted: PC-12 cells; read-out: cytotoxicity towards PC-12, IC50.
For another data set, the system named is HCT-16. To be noted: HCT-16 cells; read-out: cytotoxicity towards HCT-16, IC50.

On to `CO[C@]1(CC[C@@H](C)COC2OC(CO)C(O)C(O)C2O)OC2C[C@H]3[C@@H]4CC[C@H]5C[C@@H](OC6OC(CO)C(OC7OC(CO)C(O)C(OC8OCC(O)C(O)C8O)C7OC7OC(CO)C(O)C(O)C7O)C(O)C6O)CC[C@]5(C)[C@H]4CC[C@]3(C)C2[C@@H]1C` (stereo partly drawn) [uttroside A], for which the IC50 – broadly, the concentration needed to halve the response being measured – in the data set on HeLa cells was 15400 nM.

Regarding `C[C@H](CC[C@@]1(O)OC2C[C@H]3[C@@H]4CC[C@H]5C[C@@H](OC6OC(CO)C(OC7OC(CO)C(O)C(OC8OCC(O)C(O)C8O)C7OC7OC(CO)C(O)C(O)C7O)C(O)C6O)CC[C@]5(C)[C@H]4CC[C@]3(C)C2[C@@H]1C)COC1OC(CO)C(O)C(O)C1O` (stereo partly drawn) [uttroside B], the IC50 with PC-12 was 1200 nM; in the data set on HCT-16, 2330 nM.
